Reference: US3978129A, “Alkenyl- and alkanylamines” (A. H. Robins Company, Incorporated, priority 1972, dated 1976)
Counter-ions that a name gives are not always drawn.

Test system: depressant effects of tetrabenazine
Experiment: Blocking the depressant effects induced in mice by intravenous tetrabenazine (modified Englehardt procedure, increased tetrabenazine dosage)
Type: in vivo
Details: Mus musculus, ip, compounds I.P.
Method: The compounds were administered to mice intraperitoneally and the effectiveness of the compounds in blocking the depressant effects which are induced in mice by intravenous administration of 2-oxo-3-isobutyl-9,10-di-methoxy-1,2,3,4,6,7-hexahydro-11-bh-benzo[a]quinolizine (tetrabenazine was determined. The procedure used was a modification of that given by Englehardt, E. L. et al, J. Med. Chem. 11 (2) : 325(1968) wherein tetrabenazine dosage is increased over the Englehardt procedure. The ED50 of the compounds tested in blocking the depressant activity of tetrabenazine are given in Table I.

SMILES	ED50
CN(C)CCC(=CCCCl)c1cccc(C(F)(F)F)c1 [Example 7, 6-Chloro-N,N-dimethyl-3-(3-trifluoromethylphenyl)-3-hexenylamine Oxalate]	15.5 mg/kg
CN(C)CCC(=CCCCl)c1ccccc1 [Example 1, 6-Chloro-N,N-dimethyl-3-phenyl-3-hexenylamine Hydrochloride]	2.5 mg/kg
COc1ccc(C(=CCCCl)CCN(C)C)cc1 [Example 6, 6-Chloro-N,N-dimethyl-3-(4-methoxyphenyl)-3-hexenylamine Hydrochloride]	28.5 mg/kg
CN(C)CCC=C(CCCCl)c1ccccc1 [Example 5, 7-Chloro-N,N-dimethyl-4-phenyl-3-heptenylamine Oxalate]	10 mg/kg
CN(C)CCC(CCCCl)c1ccccc1 (centres unmarked) [Example 8, 6-Chloro-N,N-dimethyl-3-phenylhexylamine Hydrochloride]	3.6 mg/kg
CN(C)CCCC(=CCCCl)c1ccccc1 [Example 4, 7-Chloro-N,N-dimethyl-4-phenyl-4-heptenylamine Oxalate]	20 mg/kg
CN(C)CC=C(CCCBr)c1ccccc1 [Example 2, 6-Bromo-N,N-dimethyl-3-phenyl-2-hexenylamine Hydrobromide]	0.5 mg/kg
CN(C)CCC(=CCCBr)c1ccccc1 [Example 3, 6-Bromo-N,N-dimethyl-N,N-dimethyl-3-hexenylamine Hydrobromide]	1.9 mg/kg
